Source: patent US6583120B1, “Erythromycin derivative with antibiotic activity” (Zambon Group S.A., priority 1998, dated 2003)
Values after ≈ are worked out from the molar mass of the structure shown.

Legend:
Haemophilus influenzae = experiment: In vitro antibacterial activity (MIC), Gram-negative; conditions: for MIC Range: 11 strains tested; for MIC50 / MIC90: Haemophilus influenzae
Escherichia coli = experiment: as above; conditions: 3 strains tested
[1] = tested on: Streptococcus pyogenes C 203; experiment: In vivo therapeutic efficacy (PD50), experimental pulmonary infection in mice; conditions: for PD50: mice, pulmonary infection
Streptococcus group A = experiment: In vitro antibacterial activity (MIC), erythromycin-sensitive strains; conditions: for MIC Range: 15 strains tested, erythromycin-sensitive
Streptococcus pneumoniae = experiment: as above; conditions: for MIC Range: 18 strains tested, erythromycin-sensitive; for MIC50 / MIC90: Streptococcus pneumoniae
[2] = tested on: Streptococcus pneumoniae UC 41; experiment: In vivo therapeutic efficacy (PD50), experimental pulmonary infection in mice; conditions: pulmonitis
Branhamella catarrhalis = experiment: In vitro antibacterial activity (MIC), Gram-negative; conditions: for MIC Range: 5 strains tested; for MIC50 / MIC90: Moraxella catarrhalis
[3] = tested on: recently clinically isolated, erythromycin-resistant strains of Streptococcus pneumoniae; experiment: In vitro antibacterial activity (MIC), broth-scalar dilution micromethod, erythromycin-resistant clinical isolates; conditions: 18 h, 37° C.
Staphylococcus aureus = experiment: In vitro antibacterial activity (MIC), erythromycin-sensitive strains; conditions: for MIC Range: 13 strains tested, erythromycin-sensitive; for MIC50 / MIC90: Staphylococcus aureus
Streptococcus agalactiae = experiment: as above; conditions: for MIC Range: 4 strains tested, erythromycin-sensitive; for MIC50 / MIC90: Streptococcus agalactiae
Klebsiella pneumoniae = experiment: In vitro antibacterial activity (MIC), Gram-negative; conditions: for MIC Range: 6 strains tested; for MIC50 / MIC90: Klebsiella pneumoniae
[4] = oral single dose 1 hour after the infection
[5] = oral single dose 24 hours before the infection
[6] = oral single dose 48 hours before the infection
[7] = oral single dose 72 hours before the infection
[8] = Strain 871, erythromycin-resistant
[9] = Strain 1035, erythromycin-resistant
[10] = Strain 1047, erythromycin-resistant
[11] = Strain 1051, erythromycin-resistant
[12] = Strain 1188, erythromycin-resistant
[13] = Strain 1392, erythromycin-resistant
[14] = Strain 9114, erythromycin-resistant
[15] = Strain 9117, erythromycin-resistant

Row | Structure (SMILES) | MIC Range (Haemophilus influenzae) | MIC50 (Haemophilus influenzae) | MIC50 (Streptococcus group A) | MIC90 (Streptococcus group A) | MIC Range (Streptococcus group A) | MIC Range (Streptococcus pneumoniae) | MIC50 (Streptococcus pneumoniae) | MIC90 (Streptococcus pneumoniae) | MIC Range (Branhamella catarrhalis) | MIC50 (Branhamella catarrhalis) | MIC90 (Branhamella catarrhalis) | MIC Range (Staphylococcus aureus) | MIC50 (Staphylococcus aureus) | MIC90 (Staphylococcus aureus) | MIC Range (Streptococcus agalactiae) | MIC50 (Streptococcus agalactiae) | MIC90 (Streptococcus agalactiae) | MIC Range (Klebsiella pneumoniae) | MIC50 (Klebsiella pneumoniae) | MIC90 (Klebsiella pneumoniae) | other results
1 | CC[C@H]1OC(=O)[C@H](C)[C@@H](O[C@H]2C[C@@](C)(OC)[C@@H](O)[C@H](C)O2)[C@H](C)[C@@H](O[C@@H]2O[C@H](C)C[C@H](N(C)C)[C@H]2O)[C@](C)(O)C[C@@H](C)CN(C)[C@H](C)[C@@H](O)[C@]1(C)O [Azithromycin] | 0.25 to 1 µg/mL | 0.5 µg/mL (≈ 0.668 µM) | 0.0625 µg/mL (≈ 0.0834 µM) | 0.125 µg/mL (≈ 0.167 µM) | 0.0625 to 1 µg/mL | 0.0156 to 0.5 µg/mL | 0.0312 µg/mL (≈ 0.0417 µM) | 0.0625 µg/mL (≈ 0.0834 µM) | 0.0078 to 0.0156 µg/mL | 0.0156 µg/mL (≈ 0.0208 µM) | 0.0156 µg/mL (≈ 0.0208 µM) | 0.5 to 1 µg/mL | 0.5 µg/mL (≈ 0.668 µM) | 1 µg/mL (≈ 1.34 µM) | 0.0312 to 0.25 µg/mL | 0.0625 µg/mL (≈ 0.0834 µM) | 0.25 µg/mL (≈ 0.334 µM) | 4 to 8 µg/mL | 4 µg/mL (≈ 5.34 µM) | 8 µg/mL (≈ 10.7 µM) | MIC90 (Haemophilus influenzae): 1 µg/mL (≈ 1.34 µM); MIC Range (Escherichia coli): 2 to 4 µg/mL; therapeutic efficacy (duration of action in vivo), in words ([1]; 72 hours after administration): lose most of their efficacy; PD50 [1, 4]: 5.32 µmol/kg; PD50 [1, 5]: 16.45 µmol/kg; PD50 [1, 6]: 34.13 µmol/kg; PD50 [1, 7]: >85.4 µmol/kg; PD50 [2, 5]: 16.45 µmol/kg; PD50 [2, 6]: 34.13 µmol/kg; MIC [3, 8]: 2 µg/mL (≈ 2.67 µM); MIC [3, 9]: 2 µg/mL (≈ 2.67 µM); MIC [3, 10]: 4 µg/mL (≈ 5.34 µM); MIC [3, 11]: 64 µg/mL (≈ 85.4 µM); MIC [3, 12]: 8 µg/mL (≈ 10.7 µM); MIC [3, 13]: 16 µg/mL (≈ 21.4 µM); MIC [3, 14]: 32 µg/mL (≈ 42.7 µM); MIC [3, 15]: 64 µg/mL (≈ 85.4 µM)
2 | CC[C@H]1OC(=O)[C@H](C)[C@@H](O[C@H]2C[C@@](C)(OC)[C@@H](O)[C@H](C)O2)[C@H](C)[C@@H](O[C@@H]2O[C@H](C)C[C@H](N(C)C)[C@H]2O)[C@](C)(OC)C[C@@H](C)C(=O)[C@H](C)[C@@H](O)[C@]1(C)O [Clarithromycin] | 2 to 8 µg/mL | – | 0.0156 µg/mL (≈ 0.0209 µM) | 0.0156 µg/mL (≈ 0.0209 µM) | 0.0078 to 0.25 µg/mL | 0.0039 to 0.125 µg/mL | 0.0156 µg/mL (≈ 0.0209 µM) | 0.0156 µg/mL (≈ 0.0209 µM) | 0.0078 to 0.0156 µg/mL | 0.0156 µg/mL (≈ 0.0209 µM) | 0.0156 µg/mL (≈ 0.0209 µM) | 0.125 to 0.25 µg/mL | 0.25 µg/mL (≈ 0.334 µM) | 0.25 µg/mL (≈ 0.334 µM) | 0.0156 to 0.0625 µg/mL | 0.0312 µg/mL (≈ 0.0417 µM) | 0.0625 µg/mL (≈ 0.0836 µM) | 64 µg/mL (≈ 85.6 µM) | 64 µg/mL (≈ 85.6 µM) | 64 µg/mL (≈ 85.6 µM) | MIC Range (Escherichia coli): 16 to 64 µg/mL; therapeutic efficacy (duration of action in vivo), in words ([1]; administered 24 hours before the infection): lose most of their efficacy; PD50 [1, 4]: 7.38 µmol/kg; PD50 [1, 5]: >85.6 µmol/kg
3 | CC[C@H]1OC(=O)[C@H](C)[C@@H](OC2CC(C)(OC)C(O)C(C)O2)[C@H](C)[C@@H](OC2OC(C)CC(N(C)C)C2O)[C@](C)(O)C[C@@H](C)/C(=N\OCCNCCCCCCNCc2nccs2)[C@H](C)[C@@H](O)[C@]1(C)O (stereo partly shown) [Compound A] | 1 to 8 µg/mL | 4 µg/mL (≈ 4.05 µM) | 0.0156 µg/mL (≈ 0.0158 µM) | 0.0312 µg/mL (≈ 0.0316 µM) | 0.0078 to 0.5 µg/mL | 0.0019 to 0.25 µg/mL | 0.0039 µg/mL (≈ 0.00395 µM) | 0.0156 µg/mL (≈ 0.0158 µM) | 0.0019 to 0.125 µg/mL | 0.125 µg/mL (≈ 0.126 µM) | 0.125 µg/mL (≈ 0.126 µM) | 0.25 to 1 µg/mL | 0.5 µg/mL (≈ 0.506 µM) | 0.5 µg/mL (≈ 0.506 µM) | 0.0078 to 0.25 µg/mL | 0.0156 µg/mL (≈ 0.0158 µM) | 0.25 µg/mL (≈ 0.253 µM) | 16 to 32 µg/mL | 16 µg/mL (≈ 16.2 µM) | 32 µg/mL (≈ 32.4 µM) | MIC90 (Haemophilus influenzae): 4 µg/mL (≈ 4.05 µM); MIC Range (Escherichia coli): 1 to 8 µg/mL; therapeutic efficacy (duration of action in vivo), in words ([1]; 72 hours after administration): still effective; PD50 [1, 4]: 15.45 µmol/kg; PD50 [1, 5]: 16.39 µmol/kg; PD50 [1, 6]: 25.90 µmol/kg; PD50 [1, 7]: 31.51 µmol/kg; PD50 [2, 5]: 16.39 µmol/kg; PD50 [2, 6]: 25.90 µmol/kg; MIC [3, 8]: 0.5 µg/mL (≈ 0.506 µM); MIC [3, 9]: 2 µg/mL (≈ 2.02 µM); MIC [3, 10]: 2 µg/mL (≈ 2.02 µM); MIC [3, 11]: 1 µg/mL (≈ 1.01 µM); MIC [3, 12]: 2 µg/mL (≈ 2.02 µM); MIC [3, 13]: 4 µg/mL (≈ 4.05 µM); MIC [3, 14]: 0.25 µg/mL (≈ 0.253 µM); MIC [3, 15]: 0.25 µg/mL (≈ 0.253 µM)
4 | CC[C@H]1OC(=O)[C@H](C)[C@@H](O[C@H]2C[C@@](C)(OC)[C@@H](O)[C@H](C)O2)[C@H](C)[C@@H](O[C@@H]2O[C@H](C)C[C@H](N(C)C)[C@H]2O)[C@](C)(O)C[C@@H](C)/C(=N\OCOCCOC)[C@H](C)[C@@H](O)[C@]1(C)O [Roxithromycin] | 4 to 16 µg/mL | 8 µg/mL (≈ 9.56 µM) | 0.0625 µg/mL (≈ 0.0747 µM) | 0.0625 µg/mL (≈ 0.0747 µM) | 0.0312 to 1 µg/mL | 0.0156 to 0.5 µg/mL | 0.0625 µg/mL (≈ 0.0747 µM) | 0.0625 µg/mL (≈ 0.0747 µM) | 0.0312 to 0.0625 µg/mL | 0.0312 µg/mL (≈ 0.0373 µM) | 0.0625 µg/mL (≈ 0.0747 µM) | 0.25 to 1 µg/mL | 0.5 µg/mL (≈ 0.597 µM) | 1 µg/mL (≈ 1.19 µM) | 0.0625 to 0.25 µg/mL | 0.125 µg/mL (≈ 0.149 µM) | 0.25 µg/mL (≈ 0.299 µM) | >64 µg/mL | > 64 µg/mL | > 64 µg/mL | MIC90 (Haemophilus influenzae): 8 µg/mL (≈ 9.56 µM)
